Measured values reported in US20230263944A1, “DUAL FUNCTION SURFACE FOR CELL CAPTURE AND SPREADING” (THE ROYAL INSTITUTION FOR THE ADVANCEMENT OF …, priority 2020, published 2023).

Tests used:
ECFCs = experiment: Surface endothelialization of functionalized CoCr vascular stents in a perfusion model; assay type: cell-based, human; conditions: flow
Source text: (A) Representative fluorescence images of ECFCs on the surface of modified stents (after plasma amination) and an unmodified control after 2 and half hours of circulating ECFCs over the stents in a perfusion model at 1 dyn/cm^2 wall shear stress. ECFCs were stained for F-actin (red) and nuclei (blue). Phase contrast images show the corresponding stent structure. Flow direction was from right to left. (B) Quantification of cell adhesion parameters from the fluorescence images. *P<0.05 and **P<0.01 with N=3 experimental replicas from different ECFC donors.
As encompassed herein, the modifications can be applied to different aminated substrates—as shown on polystyrene (FIGS. 4-13) and on cobalt-chromium (CoCr) (FIGS. 16-18). The modifications can be applied to different geometries while retaining the benefits observed on flat substrates.

[1] = ELISA on L605 CoCr substrates modified with peptides and antibodies; conditions: dark, ambient conditions, covalent peptide grafting vs adsorption
Method: (A) Without S-SMPB, peptides adsorb onto L605 which can change antibody orientation on surfaces. (B) 12-well plate with CoCr samples at the end of the ELISA. For custom ELISAs, RGD-TAMRA was detected using anti Rhodamine followed by HRP-labelled secondary antibodies. Anti CD309 was detected using an HRP-labelled F(ab′)2 secondary antibody on a separate set of samples. HRP activity was quantified by measuring A450 of supernatant collected after 30 min incubation with TMB substrate+addition of stop solution. […] N=3 L605 samples except G-I (N=9 images).

HUVEC cells = experiment: HUVEC seeding on Protein G / anti-CD144 / RGD-TAMRA polystyrene well plate; assay type: cell-based, human; conditions: 3 h shaker incubation; for HUVEC attachment to the surface: serum free medium
Method: A 6 well plate was seeded with the following conditions in each well (W1-W6):
The functionalized surface was rinsed with phosphate buffer saline (PBS) and […]. HUVEC cells were used and were seeded in each well in serum free medium at a concentration of 19,000 cells/mL. The plate was incubated for 3 hours on an incubation shaker then imaged under the microscope. The plate were left to incubate for another 21 h (total 24 h) at 37° C. 5% CO2 and imaged again.

[2] = ELISA of functionalized CoCr surfaces after gamma-irradiation; assay type: physicochemical; conditions: two one-side t-test, 15% difference considered practically equivalent
Source text: (A) Principle of the ELISA method used to detect immobilized antibodies via horseradish peroxidase (HRP) conjugated secondary antibodies. (B) ELISA method used to detect immobilized RGD-TAMRA peptides via primary anti rhodamine antibodies followed by HRP conjugated secondary antibodies.

[3] = system: endothelial colony forming cells (ECFCs); experiment: ECFC seeding on modified polystyrene surfaces under static conditions; assay type: cell-based, human; conditions: vs unmodified aminated polystyrene surfaces
Source text: Cells were stained for F-actin (red) and DAPI (blue). Images were used to quantify cell number and surface area per cell. Unmodified=aminated polystyrene surfaces without further modifications. **p<0.01, *p<0.05 with N=3 experimental replicas.
To test whether the bifunctional surfaces can impart two significant effects on cells of interests, ECFCs derived from human peripheral blood were either seeded on the modified surfaces under static conditions or flown over the surfaces in a perfusion loop under 1 dyn/cm^2 wall shear stress. […] The two molecules were mixed together at the center point concentrations of the previously described surface model.

Substance | cell spreading on CoCr stents (ECFCs) | ELISA signal after 28d storage [1] | HUVEC attachment to the surface (HUVEC cells) | ELISA signal after gamma-irradiation [2] | surface area of the ECFCs (cell spreading) [3] | surface area of the ECFCs (cell spreading) ([3]; listed as RGD peptides) | HUVEC spreading (HUVEC cells)
CGK(PEG3-TAMRA)GGRGDS-NH2 [RGD-TAMRA] | higher cell spreading | significantly higher | strongly attach | practically equivalent | significantly higher than the controls | increase cell spreading | –
collagen | – | – | strongly attach | – | – | – | spread more
